Active and inactive are the calls of the source. The rule behind the calls is not given here.
Experiments:
[1] = Apparent octanol-phosphate buffer partition coefficient, log D of the compound at 1 mg at pH 7.4 after 24 hrs by HPLC analysis; assay type: physicochemical
HEK-293T = assay: Cytotoxicity against human 293T cells at >10 uM after 48 to 72 hrs; assay type: cell-based
MDCK = assay: Cytotoxicity against MDCK cells at >10 uM after 48 to 72 hrs; assay type: cell-based, Canis lupus familiaris; settings: dog
Neuraminidase = Neuraminidase (Influenza A virus, UniProt B4URF0); set-up: species or system Influenza A virus (A/WSN/1933(H1N1))
Neuraminidase, sequence (B4URF0 whole entry): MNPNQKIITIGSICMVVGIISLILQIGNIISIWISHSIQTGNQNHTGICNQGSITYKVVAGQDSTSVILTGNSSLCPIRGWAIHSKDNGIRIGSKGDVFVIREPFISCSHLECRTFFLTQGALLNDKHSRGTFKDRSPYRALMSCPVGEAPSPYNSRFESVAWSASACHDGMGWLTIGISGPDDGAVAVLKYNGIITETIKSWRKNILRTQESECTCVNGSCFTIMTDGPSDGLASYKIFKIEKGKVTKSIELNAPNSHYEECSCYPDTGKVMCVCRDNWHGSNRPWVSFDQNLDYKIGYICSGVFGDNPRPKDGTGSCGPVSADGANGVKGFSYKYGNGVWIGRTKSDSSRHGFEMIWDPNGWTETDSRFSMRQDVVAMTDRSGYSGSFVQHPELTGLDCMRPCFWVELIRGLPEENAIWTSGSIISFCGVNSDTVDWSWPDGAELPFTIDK

[2] = tested on: Influenza A virus (A/WSN/1933(H1N1)); assay: Antiviral activity against Influenza A virus (A/WSN/1933(H1N1)) infected in BALB/c mouse assessed as increase in survival rate at 2.6 umol/kg/day, po bid administered on day 0 prior to viral infection continued for day 1 to day 4 measured on day 14; assay type: functional, organism-based
[3] = tested on: Influenza A virus (A/WSN/1933(H1N1)); assay: Antiviral activity against Influenza A virus (A/WSN/1933(H1N1)) infected in BALB/c mouse assessed as increase in survival rate at 0.12 umol/kg/day administered on day 0 intranasally bid prior to viral infection continued for day 1 to day 4 measured on day 9; assay type: functional
[4] = AUC (0 to infinity) in ICR mouse at 10 mg/kg, po; assay type: ADME, organism-based; set-up: time infinity, dose 10 mg/kg, route oral; settings: plasma
[5] = AUC (0 to 2 hrs) in ICR mouse at 0.25 mg/kg, iv; assay type: ADME, organism-based; set-up: time < 2 hr, dose 0.25 mg/kg, route intravenous; settings: plasma
[6] = First order rate constant associated with the terminal portion of the curve in ICR mouse at 10 mg/kg, po; assay type: ADME, organism-based; set-up: dose 10 mg/kg, route oral; settings: in vivo
[7] = AUC (0 to 12 hrs) in ICR mouse at 10 mg/kg, po; assay type: ADME, organism-based; set-up: time < 12 hr, dose 10 mg/kg, route oral; settings: plasma
[8] = Apparent total clearance in ICR mouse at 10 mg/kg; assay type: ADME, organism-based; set-up: dose 10 mg/kg; settings: in vivo, read-out: CLt/F (converted)
[9] = First order rate constant associated with the terminal portion of the curve in ICR mouse at 0.25 mg/kg, iv; assay type: ADME, organism-based; set-up: dose 0.25 mg/kg, route intravenous; settings: in vivo
[10] = Terminal half life in ICR mouse at 10 mg/kg, po; assay type: ADME, organism-based; set-up: dose 10 mg/kg, route oral; settings: in vivo, read-out: beta t1/2 (converted)
[11] = Cmax in ICR mouse at 10 mg/kg; assay type: ADME, organism-based; set-up: dose 10 mg/kg; settings: in vivo
[12] = Oral bioavailability in ICR mouse at 10 mg/kg; assay type: ADME, organism-based; settings: in vivo
[13] = tested on: Influenza A virus (A/WSN/1933(H1N1)); assay: Antiviral activity against Influenza A virus (A/WSN/1933(H1N1)) infected in BALB/c mouse assessed as increase in survival rate at 1.2 umol/kg/day administered on day 0 intranasally bid prior to viral infection continued for day 1 to day 4 measured on day 14; assay type: functional
Caco-2 = assay: Permeability across apical to basolateral side in human Caco2 cells at 100 ug/mL after 15 to 120 mins by HPLC analysis; assay type: ADME, cell-based
[14] = Cellular uptake in MDCK2 cells measured per mg of protein at 100 ug/mL after 120 mins by HPLC analysis; assay type: ADME, cell-based, Canis lupus familiaris; settings: dog, mdck-ii, 2 h
[15] = Tmax in ICR mouse at 10 mg/kg; assay type: ADME, organism-based; set-up: dose 10 mg/kg; settings: in vivo
Mus musculus = assay: Bioavailability in ICR mouse at 0.25 mg/kg, iv; assay type: ADME, organism-based; settings: in vivo
[16] = AUC (0 to infinity) in ICR mouse at 0.25 mg/kg, iv; assay type: ADME, organism-based; set-up: time infinity, dose 0.25 mg/kg, route intravenous; settings: plasma
[17] = Terminal half life in ICR mouse at 0.25 mg/kg, iv; assay type: ADME, organism-based; set-up: dose 0.25 mg/kg, route intravenous; settings: in vivo, read-out: beta t1/2 (converted)

Row | SMILES | logD at 24 h [1] | Activity (HEK-293T) | Activity (MDCK) | IC50 (Neuraminidase) | Activity [2] | Activity [3] | further results
1 | CCCCCCOP(=O)(O)C1=C[C@@H](OC(CC)CC)[C@H](NC(C)=O)[C@@H](N)C1 | 0.3 | Non-toxic | Non-toxic | 2.2 nM | – | – | –
2 | CCOC(=O)C1=C[C@@H](OC(CC)CC)[C@H](NC(C)=O)[C@@H](N)C1 | – | – | – | – | Active | – | –
3 | CC(=O)N[C@H]1[C@H]([C@H](O)[C@H](O)CO)OC(C(=O)O)=C[C@@H]1NC(=N)N | – | – | – | – | – | inactive | –
4 | CCC(CC)O[C@@H]1C=C(P(=O)(O)OCCCc2ccccc2)C[C@H](N)[C@H]1NC(C)=O | 0.28 | Non-toxic | Non-toxic | 1.8 nM | – | – | –
5 | CCCCOP(=O)(O)C1=C[C@@H](OC(CC)CC)[C@H](NC(C)=O)[C@@H](N)C1 | -0.29 | Non-toxic | Non-toxic | 6.9 nM | – | – | –
6 | CCC(CC)O[C@@H]1C=C(P(=O)(O)OCCCc2c[nH]c3ccccc23)C[C@H](N)[C@H]1NC(C)=O | – | Non-toxic | Non-toxic | 1.7 nM | – | – | –
7 | CCCCCCOP(=O)(O)C1=C[C@@H](OC(CC)CC)[C@H](NC(C)=O)[C@@H](NC(=N)N)C1 | 0.63 | Non-toxic | Non-toxic | 4.1 nM | Active | Active | AUC(0-inf) [4]: 867 ng·h/mL; AUC(0-t) at 2 h [5]: 169 ng·h/mL; k el [6]: 0.000167 s⁻¹; AUC(0-t) at 12 h [7]: 361 ng·h/mL; CL/F [8]: 184 mL/min/kg; k el [9]: 0.000533 s⁻¹; half-life [10]: 1.07 h; Cmax [11]: 261 ng/mL; bioavailability [12]: 12.6%; Activity [13]: Active; permeability (Caco-2): permeable; Drug uptake [14]: 13500 ng; Tmax [15]: 1 h; F (Mus musculus): 100%; AUC(0-inf) [16]: 173 ng·h/mL; half-life [17]: 0.36 h
8 | CCCCOP(=O)(O)C1=C[C@@H](OC(CC)CC)[C@H](NC(C)=O)[C@@H](NC(=N)N)C1 | -0.16 | Non-toxic | Non-toxic | 6.7 nM | – | – | –
9 | CCOP(=O)(O)C1=C[C@@H](OC(CC)CC)[C@H](NC(C)=O)[C@@H](N)C1 [TAMIPHOSPHOR MONOETHYL ESTER] | – | Non-toxic | Non-toxic | – | – | – | –
10 | CCC(CC)O[C@@H]1C=C(P(=O)(O)OCCCc2ccccc2)C[C@H](NC(=N)N)[C@H]1NC(C)=O | 0.66 | Non-toxic | Non-toxic | 3.2 nM | Active | Active | Activity [13]: Active; Drug uptake [14]: < 2000 ng
11 | CCOP(=O)(O)C1=C[C@@H](OC(CC)CC)[C@H](NC(C)=O)[C@@H](NC(=N)N)C1 [TAMIPHOSPHOR MONOETHYL ESTER] | – | – | – | – | Active | Active | Activity [13]: Active
